In US20100197650A1, “COMPOSITIONS AND METHODS OF TREATMENT COMPRISING CEFTAROLINE” (FOREST LABORATORIES HOLDINGS LTD., priority 2008, published 2010):
In brackets after ≈: the same amount, converted by molar mass. Several values for one entry are separate records, joined by “and”; a condition that tells them apart may be missing. Equal values may be shown once. Read-outs that look alike come from different tables or passages of the source.

Key:
Streptococcus pyogenes = test: MIC, broth microdilution (Example 1); type: cell-based
Description: (§1) Stock solutions of all antibacterial agents were prepared at 80-fold (80×) the final target concentration in the appropriate solvent and the solution was allowed to stand for 60 minutes. All antibacterial agents were in solution under these conditions. The final drug concentrations in the FIC assay plates were set to bracket the MIC value of each agent for each test organism, unless the strain was totally resistant to the test agent.
(§2) The test organisms were originally received from clinical sources, or from the American Type Culture Collection. Upon receipt, the isolates were streaked onto the appropriate growth medium: Chocolate Agar for H. influenzae, Tryptic Soy Agar II (Becton Dickinson, Sparks, Md.) supplemented with 5% defibrinated sheep blood for streptococci, and unsupplemented Tryptic Soy Agar II for all other organisms. Colonies were harvested from these plates and a cell suspension was prepared in Tryptic Soy Broth (Becton Dickinson) containing cryoprotectant. Aliquots were then frozen at −80° C. On the day prior to assay, the frozen seeds of the organisms to be tested in that session were thawed and streaked for isolation onto the appropriate agar medium plates and incubated overnight at 35° C.
(§3) The test medium for H. influenzae was Haemophilus Test Medium. Streptococci were tested in Mueller Hinton II Broth (Becton Dickinson; Lot 6235472) supplemented with 2% lysed horse blood (Cleveland Scientific, Bath, Ohio; Lot H88621). All other organisms were tested in Mueller Hinton II Broth (Becton Dickinson, Lot 6235472). The broth was prepared at 1.05× normal weight/volume to offset the 5% volume of the drugs in the final test plates.
(§4) In order to select the proper test concentrations for each drug combination, minimal inhibitory concentration (MIC) values were first determined using the broth microdilution method previously described (Clinical and Laboratory Standards Institute. Methods for Dilution Antimicrobial Susceptibility Tests for Bacteria That Grow Aerobically; Approved Standard—Seventh Edition. Clinical and Laboratory Standards Institute document M7-A7 [ISBN 1-56238-587-9]. Clinical and Laboratory Standards Institute, 940 West Valley Road, Suite 1400, Wayne, Pa. 19087-1898 USA, 2006).
(§5) The wells of standard 96-well microdilution plates (Falcon 3918) were filled with 150 μL of 100% DMSO using the Multidrop 384. These plates were used to prepare the drug “mother plates” which provided the serial drug dilutions for the drug combination plates. The Biomek 2000 was used to transfer 150 μl of each stock solution (80×) from the wells in Column 1 of a deep well plate to the corresponding wells in Column 1 of the mother plate and to make seven 2-fold serial dilutions. Two mother plates, one for each drug, were combined to form a “checkerboard” pattern by transfer of equal volumes (using a multi-channel pipette) to the drug combination plate. Row H and Column 8 each contained serial dilutions of one of the agents alone for determination of the MIC.
(§6) Plates were stacked 3 high, covered with a lid on the top plate, placed in plastic bags, and incubated at 35° C. for approximately 20 hours. Following incubation, the microplates were removed from the incubator and viewed from the bottom using a ScienceWare plate viewer. Prepared reading sheets were marked for the MIC of drug 1 (row H), the MIC of drug 2 (column 8) and the wells of the growth-no growth interface.

Enterococcus faecalis = test: MIC, broth microdilution (Example 1); type: cell-based
Description: as §1, §2, §3, §4, §5, §6

Staphylococcus aureus = test: MIC, broth microdilution (Example 1); type: cell-based
Description: as §1, §2, §3, §4, §5, §6

HA-MRSA = test: Susceptibility testing MIC/MBC, broth microdilution (Example 3); type: cell-based, Staphylococcus aureus; conditions: for MIC50 / MIC90 / MBC / MIC: Staphylococcus aureus; for MIC50: read-out: MIC50; for MIC90: read-out: MIC90; for MBC: read-out: MBC; for MIC: read-out: MIC
Description: Two hundred clinical HA-MRSA isolates, harboring the SCCmecIV type, were evaluated for susceptibility testing. […] Four strains, including 1 hVISA and 1 VISA, characterized by population analysis profile and Macro Etest were selected for time-kill analysis.
Trypose soy agar (TSA; Difco, Detroit, Mich.) was used for colony counting.
Minimum inhibitory concentrations (MIC) and minimum bactericidal concentrations (MBC) were determined by broth microdilution for all antimicrobials, according to the Clinical and Laboratory Standards Institute (CLSI) guidelines (Clinical and Laboratory Standards Institute. 2006. Methods for Dilution Antimicrobial Susceptibility Tests for Bacteria That Grow Aerobically; Approved Standard. 7th ed. Wayne, Pa.: CLSI). MBC values were determined by plating of aliquots of 5 μL from clear wells onto TSA. All susceptibility testing were performed in duplicate.

[1] = Streptococcus pyogenes, S. pyogenes 0717, read-out: MIC
[2] = Streptococcus pyogenes, S. pyogenes 0722, read-out: MIC
[3] = Enterococcus faecalis, E. faecalis 0795 (VSE), read-out: MIC
[4] = Enterococcus faecalis, E. faecalis 0796 (VSE), read-out: MIC
[5] = Staphylococcus aureus, MRSA, S. aureus 0765 (MRSA), read-out: MIC
[6] = Staphylococcus aureus, MRSA, S. aureus 2053 (MRSA), read-out: MIC
[7] = Staphylococcus aureus, MSSA, S. aureus 0753 (MSSA), read-out: MIC
[8] = Staphylococcus aureus, MSSA, S. aureus 2063 (MSSA), read-out: MIC
[9] = Staphylococcus aureus, ATCC29213, S. aureus 0100 (ATCC 29213), FIC control, read-out: MIC
[10] = MRSA / VISA, HA-MRSA isolate R2303 (VISA)
[11] = MRSA, HA-MRSA isolate R3875 (hVISA)

Row | Structure (SMILES) | MIC (Streptococcus pyogenes; [1]) | MIC (Streptococcus pyogenes; [2]) | MIC (Enterococcus faecalis; [3]) | MIC (Enterococcus faecalis; [4]) | MIC (Staphylococcus aureus; [5]) | MIC (Staphylococcus aureus; [6]) | MIC (Staphylococcus aureus; [7]) | MIC (Staphylococcus aureus; [8]) | % of Isolates with MIC 0.25 μg/mL (HA-MRSA; 200 HA-MRSA isolates) | % of Isolates with MIC 0.5 μg/mL (HA-MRSA; 200 HA-MRSA isolates) | % of Isolates with MIC 1 μg/mL (HA-MRSA; 200 HA-MRSA isolates) | % of Isolates with MIC ≧4 μg/mL (HA-MRSA; 200 HA-MRSA isolates) | MIC range (HA-MRSA; 200 HA-MRSA isolates) | MIC50 (HA-MRSA; MRSA, 200 HA-MRSA isolates) | MIC90 (HA-MRSA; 200 HA-MRSA isolates) | % of Isolates with MBC 0.5 μg/mL (HA-MRSA; 200 HA-MRSA isolates) | % of Isolates with MBC 1 μg/mL (HA-MRSA; 200 HA-MRSA isolates) | % of Isolates with MBC 2 μg/mL (HA-MRSA; 200 HA-MRSA isolates) | % of Isolates with MBC ≧4 μg/mL (HA-MRSA; 200 HA-MRSA isolates) | MBC range (HA-MRSA; 200 HA-MRSA isolates) | also measured
1 | O=C(O)c1cn(C2CC2)c2cc(N3CCNCC3)c(F)cc2c1=O [Ciprofloxacin] |  |  |  |  |  |  |  |  |  |  |  |  |  |  |  |  |  |  |  |  | MIC (Enterococcus faecalis; E. faecalis 0101 (ATCC 29212), FIC control): 1 µg/mL and 0.5 µg/mL; MIC (Enterococcus faecalis; Enterococcus faecalis, ATCC29212, E. faecalis 0101 (ATCC 29212), FIC control, read-out: MIC): 0.5 to 1 µg/mL; MIC (Staphylococcus aureus; S. aureus 0100 (ATCC 29213), FIC control): 0.50 µg/mL and 0.25 µg/mL; MIC (Staphylococcus aureus; [9]): 0.25 to 0.5 µg/mL
2 | O=C(O)[C@H]1/C(=C/CO)O[C@@H]2CC(=O)N21 [Clavulanate] |  |  |  |  |  |  |  |  |  |  |  |  |  |  |  |  |  |  |  |  | MIC (Staphylococcus aureus; [9]): > 16 µg/mL
3 | NC[C@H]1O[C@H](O[C@H]2[C@H](O)[C@@H](O[C@H]3O[C@H](CO)[C@@H](O)[C@H](N)[C@H]3O)[C@H](N)C[C@@H]2N)[C@H](N)C[C@@H]1O [Tobramycin] |  |  |  |  |  |  |  |  |  |  |  |  |  |  |  |  |  |  |  |  | MBC (HA-MRSA; [10]): 0.5 µg/mL (≈ 1.07 µM); MIC (HA-MRSA; [10]): 0.125 µg/mL (≈ 0.267 µM); MBC (HA-MRSA; MRSA, HA-MRSA isolate R3804): 1 µg/mL (≈ 2.14 µM); MIC (HA-MRSA; MRSA, HA-MRSA isolate R3804): 0.5 µg/mL (≈ 1.07 µM); MBC (HA-MRSA; [11]): 0.5 µg/mL (≈ 1.07 µM); MIC (HA-MRSA; [11]): 0.5 µg/mL (≈ 1.07 µM); MBC (HA-MRSA; MRSA, HA-MRSA isolate R4039): 1 µg/mL (≈ 2.14 µM); MIC (HA-MRSA; MRSA, HA-MRSA isolate R4039): 1 µg/mL (≈ 2.14 µM)

The next lines start with results.

Row | MIC (Streptococcus pyogenes; [1]) | MIC (Streptococcus pyogenes; [2]) | MIC (Enterococcus faecalis; [3]) | MIC (Enterococcus faecalis; [4]) | MIC (Staphylococcus aureus; [5]) | MIC (Staphylococcus aureus; [6]) | MIC (Staphylococcus aureus; [7]) | MIC (Staphylococcus aureus; [8]) | % of Isolates with MIC 0.25 μg/mL (HA-MRSA; 200 HA-MRSA isolates) | % of Isolates with MIC 0.5 μg/mL (HA-MRSA; 200 HA-MRSA isolates) | % of Isolates with MIC 1 μg/mL (HA-MRSA; 200 HA-MRSA isolates) | % of Isolates with MIC ≧4 μg/mL (HA-MRSA; 200 HA-MRSA isolates) | MIC range (HA-MRSA; 200 HA-MRSA isolates) | MIC50 (HA-MRSA; MRSA, 200 HA-MRSA isolates) | MIC90 (HA-MRSA; 200 HA-MRSA isolates) | Structure (SMILES) | % of Isolates with MBC 0.5 μg/mL (HA-MRSA; 200 HA-MRSA isolates) | % of Isolates with MBC 1 μg/mL (HA-MRSA; 200 HA-MRSA isolates) | % of Isolates with MBC 2 μg/mL (HA-MRSA; 200 HA-MRSA isolates) | % of Isolates with MBC ≧4 μg/mL (HA-MRSA; 200 HA-MRSA isolates) | MBC range (HA-MRSA; 200 HA-MRSA isolates) | also measured
4 | 1 µg/mL | 1 µg/mL | 2 µg/mL | 4 µg/mL | 4 µg/mL | 2 µg/mL | 4 µg/mL | 4 µg/mL | 9.5% | 16% | 15.5% | 11.5% | 0.25 to 4 µg/mL | 2 µg/mL (≈ 5.93 µM) | 4 µg/mL (≈ 11.9 µM) | CC(=O)NC[C@H]1CN(c2ccc(N3CCOCC3)c(F)c2)C(=O)O1 [Linezolid] | 1.5% | 12% | 13.5% | 73% | 0.5 to 64 µg/mL | MIC (Enterococcus faecalis; Enterococcus faecalis, VRE, E. faecalis 0847 (VRE), read-out: MIC): 2 µg/mL; MIC (Enterococcus faecalis; Enterococcus faecalis, VRE, E. faecalis 0849 (VRE), read-out: MIC): 2 µg/mL; % of Isolates with MIC 2 μg/mL (HA-MRSA; 200 HA-MRSA isolates): 47.5%
5 | 0.05 µg/mL | 0.06 µg/mL | 1 µg/mL | 2 µg/mL | 0.5 µg/mL | 0.5 µg/mL | 0.5 µg/mL | 1 µg/mL | 58.5% | 20.5% | 1% | 0.5% | 0.125 to 4 µg/mL | 0.25 µg/mL (≈ 0.154 µM) | 0.5 µg/mL (≈ 0.309 µM) | CCCCCCCCCC(=O)N[C@@H](Cc1c[nH]c2ccccc12)C(=O)N[C@H](CC(N)=O)C(=O)N[C@@H](CC(=O)O)C(=O)N[C@@H]1C(=O)NCC(=O)N[C@@H](CCCN)C(=O)N[C@@H](CC(=O)O)C(=O)N[C@H](C)C(=O)N[C@@H](CC(=O)O)C(=O)NCC(=O)N[C@H](CO)C(=O)N[C@@H]([C@H](C)CC(=O)O)C(=O)N[C@@H](CC(=O)c2ccccc2N)C(=O)O[C@@H]1C [Daptomycin] | 35% | 5% | 2.5% | 0.5% | 0.125 to 4 µg/mL | MIC (Streptococcus pyogenes; S. pyogenes 0717): 0.06 µg/mL; % of Isolates with MBC 0.25 μg/mL (HA-MRSA; 200 HA-MRSA isolates): 47.5%; % of Isolates with MBC […] (HA-MRSA; 200 HA-MRSA isolates): 9.5%; % of Isolates with MIC […] (HA-MRSA; 200 HA-MRSA isolates): 19.5%
